The test system of the experiment is MCAO rat model of ischemic stroke. Description: Forelimb placement test after tMCAO. Type of experiment: in vivo. The settings on record: Example 1, continuous s.c. Alzet pump. Here is the method:
For the purposes of this example, Transient middle cerebral artery occlusion (tMCAO) procedure Day is defined as “Day 1” in this study. On the day of surgery anesthesia were induced with 4% isoflurane in a mixture of 70% N2O and 30% O2 and maintained with 1.5-2% isoflurane.
The tMCAO procedures were performed according to the method described R. Schmid-Elsaesser et al. Briefly, the right CCA (Common Carotid Artery) was exposed through a midline neck incision and carefully dissected free from surrounding nerves and fascia—from its bifurcation to the base of the skull. The occipital artery branches of the ECA (External Carotid Artery) were then isolated, and these branches were dissected and coagulated. The ECA was dissected further distally and coagulated along with the terminal lingual and maxillary artery branches, which was then divided. The ICA (Internal Carotid Artery) was isolated and carefully separated from the adjacent vagus nerve, and the pterygopalatine artery was ligated close to its origin with a 5-0 nylon suture (SMI, Belgium). Next, a 4-0 silk suture was tied loosely around the mobilized ECA stump, and a 4 cm length of 4-0 monofilament nylon suture (the tip of the suture was blunted by using a flame, and the suture was coated with polylysine, prior to insertion) was inserted through the proximal ECA into the ICA and thence into the circle of Willis, effectively occluding the MCA. The surgical wound was closed and the animals were returned to their cages to recover from anesthesia. One hour and a half after occlusion rats were re-anesthetized, the monofilament was withdrawn to allow reperfusion, the surgical wound was closed and rats were returned to their cages.
Animals were subjected to a modified Modified Neurological Rating Scale (mNRS) at 24 hours post reperfusion. Only animals with an overall score of ≧10 are included in this study. Animals were allocated into the test groups, according to the mNRS results on day 2, in order to have similar distribution of rats performance between groups. Started on day 2, 24 hours post-surgery, each animal is implanted subcutaneously with osmotic Alzet pump and is treated by continuous PanCyte administration (2.5 mg/ml or 25 mg/ml in PBS; SEQ ID NO:22).
The limb placing tests were divided into both forelimb and hindlimb tests. For the forelimb-placing test, the examiner held the rat close to a tabletop and scored the rat's ability to place the forelimb on the tabletop in response to whisker, visual, tactile, or proprioceptive stimulation. Similarly, for the hindlimb placing test, the examiner assessed the rat's ability to place the hindlimb on the tabletop in response to tactile and proprioceptive stimulation. […]

`CCC(C)C1NC(=O)C(NC(=O)C(NC(=O)C(CCCNC(=N)N)NC(=O)C(N)CC(=O)O)C(C)C)CSCC(C(=O)O)NC(=O)C(Cc2c[nH]cn2)NC1=O` (stereo not drawn) [PanCyte, Asp^1-Arg^2-Val^3-Ser^4-Ile^5-His^6-Cys^7 (SEQ ID NO: 22)]: the “forelimb placing test performance vs control” value is given as “performed significantly better than control animals beginning on day 15” (50 μg/kg for 14 days, from day 15); “increased performance on this test by day 29” (each PanCyte group (50 μg/kg 49 days, 500 μg/kg 49 days, 50 μg/kg 14 days), day 29, continued to day 36); “did not reach statistical significance until day 29” (other treatment groups (50 μg/kg 49 days, 500 μg/kg 49 days), trending before day 29).

Source of the values: patent publication US9511055B2, “Angiotensin in treating brain conditions” (TARIX PHARMACEUTICALS LTD., priority 2012, dated 2016).
